One experiment concerns RKO. The experiment in a line: Cytotoxicity assay (cell counting). The format is cell-based. As to conditions: Homo sapiens, colon carcinoma, 72 hours incubation. As to the method:
(§1) Cells were plated in 24-well plates. After cells were allowed to recover for 24 hours, NVX-412 was added in fresh growth medium. The maximal DMSO concentration reached in all experiments was below 0.01%. Respective control experiments at the highest DMSO concentration were performed in order to rule out DMSO-induced effects. After 72 hours incubation the proportion of viable cells was determined by cell counting with a Z1 Coulter Particle Counter (Beckman Coulter, Vienna, AUT), a ViCell XR (Beckman Coulter, Vienna, AUT) or a CASY® Cell Counter (Schärfe, Reutlingen, Germany). Cytotoxicity was expressed as IC50 values that were derived from the corresponding dose–response curves.

The next experiment concerns NALM-1. The experiment in a line: Cytotoxicity assay (cell counting). As to conditions: Homo sapiens; NALM-1, CML; 72 hours incubation. The format is cell-based. The procedure:
as §1

For another experiment, the system named is Ramos. The experiment can be described thus: Cytotoxicity assay (cell counting). The format is cell-based. As to conditions: Homo sapiens, Burkitt Lymphoma, 72 hours incubation. The procedure: as §1
The test system of a further experiment is Hs578T. The experiment can be described thus: Cytotoxicity assay (cell counting). The format is cell-based. As to conditions: Homo sapiens, Hs-578T, breast carcinoma, 72 hours incubation. As to the method:
as §1

The next experiment deals with CLBL-1. The experiment in a line: Cytotoxicity assay (cell counting). The format is cell-based. As to conditions: Canis lupus familiaris; CLBL-1, canine B-cell lymphoma; 72 hours incubation. The procedure: as §1
The test system of a further experiment is KG-1. The experiment can be described thus: Cytotoxicity assay (cell counting). As to conditions: Homo sapiens; KG-1, AML; 72 hours incubation. The format is cell-based. The procedure:
as §1

The subject of another experiment is BV173. The experiment in a line: Cytotoxicity assay (cell counting). The format is cell-based. As to conditions: Homo sapiens, BV-173; BV173, CML; 72 hours incubation. The procedure: as §1
The test system of another experiment is CL-1. The experiment can be described thus: Cytotoxicity assay (cell counting). The format is cell-based. As to conditions: Canis lupus familiaris; CL-1, canine T-cell lymphoma; 72 hours incubation. As to the method: as §1
In a further experiment the test system is K562. The experiment in a line: Cytotoxicity assay (cell counting). The format is cell-based. As to conditions: Homo sapiens; K562, CML; 72 hours incubation. The procedure:
as §1

Another experiment has as its system SU-DHL-8. The experiment in a line: Cytotoxicity assay (cell counting). The format is cell-based. As to conditions: Homo sapiens; SU-DHL-8, B-cell lymphoma; 72 hours incubation. The procedure:
as §1

Another experiment deals with HL-60. The experiment in a line: Cytotoxicity assay (cell counting). As to conditions: Homo sapiens; HL-60, AML; 72 hours incubation. The format is cell-based. The procedure:
as §1

The test system of the next experiment is GL-1. The experiment in a line: Cytotoxicity assay (cell counting). The format is cell-based. As to conditions: Canis lupus familiaris; GL-1, canine B-cell leukemia; 72 hours incubation. The procedure:
as §1

The test system of experiment [1] is 59 different human tumor cell lines. The experiment in a line: NCI-60 DTP human tumor cell line screen, all cell lines combined. The format is cell-based. As to conditions: 48 h, all cancer types, 48 hours incubation. As to the method:
NVX-412 was included in an anti-cancer activity screen by the National Cancer Institute (NCI). The compound was tested against 59 different human tumor cell lines, representing leukemia, melanoma and cancers of the lung, colon, brain, ovary, breast, prostate, and kidney (for a complete list of cell lines please refer to Shoemaker et al. 2006 [5]). The methodology of this in vitro cancer screen is described in detail on the NCI website (http://dtp.nci.nih.gov/branches/btb/ivclsp.html). Briefly, the human tumor cell lines of the cancer screening panel were grown in RPMI 1640 medium containing 5% FCS and 2 mM L-glutamine in 96-well plates at densities ranging from 5,000 to 40,000 cells/well. After 24 hours the experimental drug was added at 5 concentrations plus control and cells were incubated for additional 48 hours. For determination of the growth-inhibitory effect of the compound a sulphorhodamine B assay was performed that employs a chemical fixation step at the end of drug treatment and a subsequent staining for 10 minutes. After a washing step, absorbance was determined at 515 nm. […]

The next experiment has as its system pChk1 (Ser296). The experiment in a line: Western Blot for pChk1 (Ser296) in HCT116 cells. The format is cell-based, human. As to conditions: HCT116, 150 nM, 0–48 hours. The procedure:
Treated cells were directly lysed in NP40 cell lysis buffer (Invitrogen, Grand Island, NY, USA) containing protease and phosphatase inhibitors. Protein concentrations were measured colorimetrically (DC Protein Assay, Bio-Rad Laboratories, Hercules, CA, USA). Proteins were separated by SDS - polyacrylamide gel electrophoresis and blotted onto nitrocellulose membranes (Whatman™, Vienna, AUT). Equal loading was checked by Ponceau S (SERVA, Heidelberg, GER) staining. Bound antigen was visualized with the enhanced chemiluminescence detection system (Roche Diagnostics, Indianapolis, IN, USA). These procedures were performed according to the manufacturer’s protocols. Antibodies specific for the following proteins of interest were used: pChk1 (Ser296), p-p53 (Ser15), β-Tubulin and GAPDH were obtained from Cell Signaling Technology (Danvers, MA, USA) at 1∶1000 dilution. Secondary antibodies were peroxidase-tagged goat anti-rabbit or anti-mouse IgGs (Cell Signaling Technology) (1∶2000).
In general terms: A western blot detects proteins with antibodies after separation by electrophoresis.

In a further experiment the test system is p-p53 (Ser15). The experiment can be described thus: Immunofluorescence staining of p-p53 (Ser15) in HCT116 cells. The format is cell-based, human. As to conditions: HCT116, 24 hours. As to the method: HCT116 and HeLa cells were seeded on glass cover slips in 6-well plates. 24 hours after plating, HCT116 cells were incubated with 0.15, 0.5 and 1 µM NVX-412 and 1 µM CPT for 24 hours for staining of p-p53. For investigating γH2AX, HeLa cells were incubated with 0.21, 0.5 and 1 µM NVX-412 and 1 µM CPT for 3 or 24 hours. Additionally, cells were allowed to recover for 24 hours in normal growth medium after 24 hours of incubation with NVX-412 or CPT (wash-out experiment). After the respective treatments, cells were washed and fixed with 4% methanol-free formaldehyde (Polysciences Inc. Warrington, PA, USA) for 15 minutes at room temperature and then permeabilized with 0.2% Triton X-100/PBS for 2 minutes at room temperature. After blocking with goat serum (5%) in 1% BSA/0.3% Triton X-100/PBS, the respective primary antibody was added and cells were incubated at 4°C overnight. Antibodies used were: mouse p-p53 (Ser15) (Cell Signaling Technology, Danvers, MA, USA) at 1∶100 dilution and mouse p-H2AX (Ser139) (Millipore, Billerica, MA, USA) at 1∶1000 dilution in 1% BSA/PBS, respectively. Cells were then washed 3 times for 10 minutes with 0.25% BSA/0.1% Triton X-100/PBS and incubated with the Alexa Fluor 488 conjugated secondary anti-mouse antibody (1∶1000 in 0.25% BSA/0.1% Triton X-100/PBS) for 1 hour at room temperature in the dark. Cells were washed 3 times for 10 minutes with 0.05% Tween-20/PBS containing Hoechst 33342 (Sigma Aldrich, Vienna, AUT) and mounted with mounting medium (Fluoprep, bioMérieux, Marcy l'Etoile, FRA). Fluorescence was immediately recorded on a Zeiss LSM700 laser scanning microscope.

SMILES strings stand for the structures.

This is an account of results in publication PMC3441706 (PLoS ONE, 2012).

One may read the IC50 as the midpoint of a concentration-inhibition curve.

On to `O=C(NNc1nc2cc(F)ccc2n2cccc12)c1cnccn1` [NVX-412, Pyrazine-2-carboxylic acid N’- (7-fluoro-pyrrolo[1,2-α]quinoxalin-4-yl)-hydrazide-oxalic acid co-crystal], for which the IC50 turned out to be 0.15 µM in the experiment on RKO; 0.33 µM in the experiment on NALM-1; 0.17 µM in the experiment with Ramos; 0.135 µM in the experiment with Hs578T; 0.04 µM with CLBL-1; 0.19 µM with KG-1. The 50% inhibitory concentration (IC50) came out at 0.21 µM with BV173; 0.17 µM in the experiment on CL-1; 0.54 µM in the experiment on K562; 0.08 µM in the experiment on SU-DHL-8; 0.21 µM with HL-60; 0.105 µM with GL-1. Moreover, in experiment [1], the 50% inhibitory concentration (IC50) was approximately 0.2 µM. For the same compound, the “Chk1 Ser296 phosphorylation” value with pChk1 (Ser296) is reported as “increased after 4 hours”. Also, the “p-p53 (Ser15) immunofluorescence staining” value in the experiment with p-p53 (Ser15) (0.5 and 1 µM) is recorded as “positive staining”; with p-p53 (Ser15) (IC50 concentration), “did not lead to p-p53 (Ser15) staining”.
